This note sets out measurements from US9751842B2, “Phthalazine derivatives” (Merck Patent GmbH, priority 2013, dated 2017).

Bounds are passed on as bounds.

Holding throughout (format): biochemical
Experiment [1] deals with T1, GST-tagged Tnks-1 (1023-1327 aa) (Homo sapiens, UniProt O95271).
T1 construct: GST-tagged Tnks-1 (1023-1327 aa, prepared in-house); made in house
The experiment is described as follows: TNKS1 activity ELISA (autoparsylation). Conditions: activity ELISA, 1 hour at 30° C; read-out: IC50 TNKS1 ELISA. As to the method:
(§1) Description of the TNKS1 and TNKS2 ELISA Assay
(§2) Biochemical Activity Testing of TNKS 1 and 2: Activity ELISA (Autoparsylation Assay)
(§3) For analysis of autoparsylation activity of TNKS 1 and 2 an activity ELISA is performed: In the first step GST tagged TNKS is captured on a Glutathione coated plate. Then the activity assay with biotinylated NAD is performed in the absence/presence of the compounds. During the enzymatic reaction GST tagged TNKS transfers biotinylated ADP-ribose to itself from biotinylated NAD as co-substrate. For the detection streptavidin-HRP conjugate is added that binds to the biotinylated TNKS and is thereby captured to the plates. The amount of biotinylated resp. autoparsylated TNKS is detected with a luminescence substrate for HRP. The level of the luminescence signal correlates directly with the amount of autoparsylated TNKS and therefore with activity of TNKS.
(§4) The activity ELISA is performed in 384 well Glutathione coated microtiter plates (Express capture Glutathione coated plate, Biocat, Heidelberg, Germany). The plates are pre-equilibrated with PBS. Then the plates are incubated with 50 μl 20 ng/well GST-tagged Tnks-1 (1023-1327 aa, prepared in-house), respectively GST-tagged Tnks-2 (873-1166 aa, prepared in-house) in assay buffer (50 mM HEPES, 4 mM Mg-chloride, 0.05% Pluronic F-68, 2 mM DTT, pH 7.7) overnight at 4° C. The plates are washed 3 times with PBS-Tween-20. The wells are blocked by incubation at room temperature for 20 minutes with 50 μl blocking buffer (PBS, 0.05% Tween-20, 0.5% BSA). Afterwards the plates are washed 3 times with PBS-Tween-20. The enzymatic reaction is performed in 50 μl reaction solution (50 mM HEPES, 4 mM Mg-chloride, 0.05% Pluronic F-68, 1.4 mM DTT, 0.5% DMSO, pH 7.7) with 10 μM bio-NAD (Biolog, Life science Inst., Bremen, Germany) as co-substrate in the absence or presence of the test compound (10 dilution concentrations) for 1 hour at 30° C. The reaction is stopped by 3 times washing with PBS-Tween-20. For the detection 50 μl of 20 ng/μl Streptavidin, HRP conjugate (MoBiTec, Göttingen, Germany) in PBS/0.05% Tween-20/0.01% BSA are added and the plates are incubated for 30 minutes at room temperature. After three times washing with PBS-Tween-20 50 μl of SuperSignal ELISA Femto Maximum sensitivity substrate solution (ThermoFisherScientific (Pierce), Bonn, Germany) are added. Following a 1 minute incubation at room temperature luminescence signals are measured with an Envision multimode reader (Perkin Elmer LAS Germany GmbH) at 700 nm. The full value used is the inhibitor-free reaction. The pharmacological zero value used is XAV-939 (Tocris) in a final concentration of 5 μM. The inhibitory values (IC50) are determined using either the program Symyx Assay Explorer® or Condosseo® from GeneData.
(In general: ELISA stands for enzyme-linked immunosorbent assay.)

Experiment [2] has as its target T2, GST-tagged Tankyrase-1 (1023-1327 aa) (Homo sapiens, UniProt O95271).
T2 construct: GST-tagged Tankyrase-1 (1023-1327 aa)
Description: Tankyrase 1 autoparsylation HTRF enzyme assay. Conditions: HTRF autoparsylation, 90 min at 30° C; read-out: IC50 TNKS1 enzyme assay. As for the experimental part: Biochemical Activity Testing of Tankyrase 1 and 2: Autoparsylation Assay
The autoparsylation assay is run in two steps: the enzymatic reaction in which GST-tagged Tankyrase-1, resp Tankyrase-2 transferred biotinylated ADP-ribose to itself from biotinylated NAD as co-substrate and the detection reaction where a time resolved FRET between cryptate labelled anti-GST bound to the GST tag of the enzyme and Xlent® labelled-streptavidin bound the biotin-parsylation residue is analysed. The autoparsylation activity was detectable directly via the increase in HTRF signal.
The autoparsylation assay is performed as 384-well HTRF® (Cisbio, Codolet, France) assay format in Greiner low volume nb 384-well microtiter plates and is used for high throughput screen. 250 nM GST-tagged Tankyrase-1 (1023-1327 aa), respectively about 250 nM GST-tagged Tankyrase-2 (873-1166 aa) and 5 μM bio-NAD (Biolog, Life science Inst., Bremen, Germany) as co-substrate are incubated in a total volume of 5 μl (50 mM HEPES, 4 mM Mg-chloride, 0.05% Pluronic F-68, 1.4 mM DTT, 0.5% DMSO, pH 7.7) in the absence or presence of the test compound (10 dilution concentrations) for 90 min at 30° C. The reaction is stopped by the addition of 1 μl 50 mM EDTA solution. 2 μl of the detection solution (1.6 μM SA-Xlent® (Cisbio, Codolet, France), 7.4 nM Anti-GST-K® (Eu-labelled anti-GST, Cisbio, Codolet, France) in 50 mM HEPES, 800 mM KF, 0.1° A. BSA, 20 mM EDTA, 0.1% CHAPS, pH 7.0) are added. After 1 h incubation at room temperature the HTRF is measured with an Envision multimode reader (Perkin Elmer LAS Germany GmbH) at excitation wavelength 340 nm (laser mode) and emission wavelengths 615 nm and 665 nm. The ratio of the emission signals is determined. The full value used is the inhibitor-free reaction. The pharmacological zero value used is XAV-939 (Tocris) in a final concentration of 5 μM. The inhibitory values (IC50) are determined using either the program Symyx Assay Explorer® or Condosseo® from GeneData.
In general terms: TR-FRET usually uses a lanthanide donor and a delayed reading to cut background.

In experiment [3] the target is T3, GST-tagged Tnks-2 (873-1166 aa) (Homo sapiens, UniProt Q9H2K2).
T3 construct: GST-tagged Tnks-2 (873-1166 aa, prepared in-house); made in house
The experiment is described as follows: TNKS2 activity ELISA (autoparsylation). Conditions: activity ELISA, 1 hour at 30° C; read-out: IC50 TNKS2 ELISA. As to the method:
as §1, §2, §3, §4

T2 sequence (O95271 1023-1327): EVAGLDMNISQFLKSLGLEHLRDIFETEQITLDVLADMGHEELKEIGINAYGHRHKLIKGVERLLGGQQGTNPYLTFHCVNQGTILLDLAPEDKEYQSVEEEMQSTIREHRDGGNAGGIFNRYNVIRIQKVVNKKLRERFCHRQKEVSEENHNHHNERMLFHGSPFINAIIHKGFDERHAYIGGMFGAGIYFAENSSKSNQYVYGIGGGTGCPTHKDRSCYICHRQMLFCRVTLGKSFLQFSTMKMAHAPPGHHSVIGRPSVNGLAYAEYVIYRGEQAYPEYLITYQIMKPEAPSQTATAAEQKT
T1 sequence (O95271 1023-1327): as above
T3 sequence (Q9H2K2 873-1166): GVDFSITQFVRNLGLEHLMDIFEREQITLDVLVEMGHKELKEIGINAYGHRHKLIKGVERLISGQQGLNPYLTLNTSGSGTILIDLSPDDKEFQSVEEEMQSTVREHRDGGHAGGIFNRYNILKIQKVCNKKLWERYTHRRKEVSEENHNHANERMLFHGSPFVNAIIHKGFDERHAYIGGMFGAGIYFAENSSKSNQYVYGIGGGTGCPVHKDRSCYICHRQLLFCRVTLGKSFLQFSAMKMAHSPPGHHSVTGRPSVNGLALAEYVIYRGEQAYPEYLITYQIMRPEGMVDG

As usually defined, the IC50 is the concentration that gives 50% inhibition. On to `O=C(Cc1ccccc1)Nc1nncc2ccccc12` [Compound A1, 2-phenyl-N-phthalazin-1-yl-acetamide], for which the IC50 in experiment [1] is < 300 nM; in experiment [2] it was < 300 nM; in experiment [3], 300 to 3000 nM.
Consider `COc1cccc(CC(=O)Nc2nncc3ccccc23)c1` [Compound A2, 2-(3-methoxyphenyl)-N-phthalazin-1-yl-acetamide], for which the IC50 in experiment [1], in experiment [2] and in experiment [3] was 300 to 3000 nM each time.
`COc1ccc(CC(=O)Nc2nncc3ccccc23)cc1` [Compound A3, 2-(4-methoxyphenyl)-N-phthalazin-1-yl-acetamide]: the IC50 in experiment [1], in experiment [2] and in experiment [3] was < 300 nM in each case.
`CCOc1ccc(CC(=O)Nc2nncc3ccccc23)cc1` [Compound A4, 2-(4-ethoxyphenyl)-N-phthalazin-1-yl-acetamide]: the 50% inhibitory concentration (IC50) in experiment [1], in experiment [2] and in experiment [3] was < 300 nM throughout.
`O=C(CCC1CCCC1)Nc1nncc2ccccc12` [Compound A15, 3-cyclopentyl-N-phthalazin-1-yl-propionamide]: the IC50 in experiment [1], in experiment [2] and in experiment [3] was < 300 nM each time.
As for `O=C(CCc1ccccc1Cl)Nc1nncc2ccccc12` [Compound A16, 3-(2-chloro-phenyl)-N-phthalazin-1-yl-propionamide], the IC50 in experiment [1], in experiment [2] and in experiment [3] was < 300 nM each time.
Turning to `Cc1cccc2cnnc(NC(=O)Cc3ccccc3)c12` [Compound A18, N-(8-methyl-phthalazin-1-yl)-2-phenyl-acetamide], the IC50 in experiment [1] is < 300 nM; in experiment [2] it was 300 to 3000 nM; in experiment [3], < 300 nM.
For the compound `COc1ccc(CC(=O)Nc2nncc3cccc(C)c23)cc1` [Compound A20, 2-(4-methoxy-phenyl)-N-(8-methyl-phthalazin-1-yl)-acetamide], the values for the IC50 in experiment [1], in experiment [2] and in experiment [3] were < 300 nM, 300 to 3000 nM and < 300 nM, respectively.
